Source: US20050277617A1, “Drugs against articular failure” (KABUSHIKI KAISHA HAYASHIBARA SEIBUTSU KAGAKU KENKYUJO, priority 2000, published 2005)

Test system: arthritis induced rat
Test: Arthritis induced by type II collagen immunization in rats; increasing rate of hind foot volume
Format: in vivo
Details: for Enhancement of the alleviation effect of amino sugars on arthritis: Experiment 3, saccharide used instead of trehalose in the design of Experiment 1; for Judgment (symbol) of the effect of alleviating arthritis / Relative value of the average of increasing rate of hind foot volume when the average in the control group was regarded as 100: Experiment 1, daily until day 24, GlcN or GlcNAc 100, Ch4S 50, Trehalose 200 mg/kg body weight/day, female Lewis rats
Text: Thirty-six female Lewis rats, aged 6-weeks, were divided into 12 groups consisting of three rats per group. Glucosamine, N-acetylglucosamine, chondroitin 4-sulfate, and crystalline hydrous trehalose, which were all in a reagent grade, and designated as “test compounds” hereinafter), were respectively dissolved in phosphate buffer saline (described as “PBS” hereinafter), and intraperitoneally injected alone or in an appropriate combination daily to the rats of the group Nos. 1 to 11 at the doses in the following Table 2. As a control, PBS was administrated daily to each rat of the group No. 12 at a dose of 1 ml per day by the same administration route as above. Hereinafter, the day number means a day counted from the starting day of administration. In accordance with the method of inducing arthritis by type II collagen immunization described by K. Terato, in “Biomedical research”, Vol. 3, pp. 495-505, 1982, on day 3, 800 μg/head of a type II collagen from bovine in a reagent grade along with Freund's incomplete adjuvant was administered to the dorsal subcutaneous; and on day 10, a fresh preparation of the same collagen and adjuvant as used above were administered at a dose of about 1/10 of that of on day 3. Test compounds were administered to the rats daily until day 24.
During the term of the above experiment, on day 3 just before the administration of collagen and on day 24 just after the administration of the test compounds, both hind foot volumes of every rat were measured according to the method described by D. T. Walz in “Journal of Experimental Therapy”, Vol. 152, pp. 116-121, 1971. Increasing rate (%) of the total hind foot volume of each rat was calculated by substituting the data for the Formula 1 below. Increasing rate of hind foot volume (%)=[{(Measured volume on day 24)−(Measured volume on day 3)}/(Measured volume on day 3)]×100 Formula 1
The effect of alleviating arthritis for each test compound was judged on the basis of the criterion described in the following Table 1, after calculating the averages of increased rates of hind foot volumes in the rats of the group Nos. 1 to 11 and the relative values of the above averages when the average in the control group was regarded as 100. The results are in Table 2
As a result, the effect of glucosamine or N-acetylglucosamine with trehalose was judged as high (symbol “+”) even with the tested minimum amount of 5 mg/kg body weight/day. […]

Compound: OC[C@H]1O[C@H](O[C@H]2[C@H](O)[C@@H](O)C(O)O[C@@H]2CO)[C@H](O)[C@@H](O)[C@@H]1O (mixture of isomers) [maltose]
- Enhancement of the alleviation effect of amino sugars on arthritis: no enhanced effect

Compound: COc1ccc2c(c1)c(CC(=O)O)c(C)n2C(=O)c1ccc(Cl)cc1 [indomethacin]
- Increasing rate of hind foot volume (3 mg/kg body weight, some rats, data not shown): < 20%

Compound: OC[C@H]1O[C@H](O[C@H]2O[C@H](CO)[C@@H](O)[C@H](O)[C@H]2O)[C@H](O)[C@@H](O)[C@@H]1O [Trehalose, trehalose]
- Increasing rate of hind foot volume compared with the control group (Experiment 1, group No. 6, trehalose alone 200 mg/kg body weight/day, intraperitoneal): No difference
- Judgment (symbol) of the effect of alleviating arthritis (intraperitoneal): − (67 or more)
- Relative value of the average of increasing rate of hind foot volume when the average in the control group was regarded as 100 (intraperitoneal): 98

Compound: OC[C@@H](O)[C@@H](O)[C@H](O)[C@@H](O)CO [sorbitol]
- Enhancement of the alleviation effect of amino sugars on arthritis: no enhanced effect

Compound: N[C@H]1C(O)O[C@H](CO)[C@@H](O)[C@@H]1O (some centres unmarked) [GlcN, glucosamine]
- Judgment (symbol) of the effect of alleviating arthritis (intraperitoneal): − (67 or more)
- Relative value of the average of increasing rate of hind foot volume when the average in the control group was regarded as 100 (intraperitoneal): 88

Compound: CC(=O)N[C@H]1C(O)O[C@H](CO)[C@@H](O)[C@@H]1O (some centres unmarked) [GlcNAc, N-acetylglucosamine]
- Judgment (symbol) of the effect of alleviating arthritis (intraperitoneal): − (67 or more)
- Relative value of the average of increasing rate of hind foot volume when the average in the control group was regarded as 100 (intraperitoneal): 89

Compound: OC[C@@H](O)[C@@H](O[C@H]1O[C@H](CO)[C@@H](O)[C@H](O)[C@H]1O)[C@H](O)[C@@H](O)CO [maltitol]
- Enhancement of the alleviation effect of amino sugars on arthritis: no enhanced effect

Compound: chondroitin 4-sulfate [Ch4S]
- Judgment (symbol) of the effect of alleviating arthritis (intraperitoneal): − (67 or more)
- Relative value of the average of increasing rate of hind foot volume when the average in the control group was regarded as 100 (intraperitoneal): 95

Compound: OC[C@H]1O[C@@H](O[C@H]2O[C@H](CO)[C@@H](O)[C@H](O)[C@H]2O)[C@H](O)[C@@H](O)[C@@H]1O [neotrehalose]
- Enhancement of the alleviation effect of amino sugars on arthritis: no enhanced effect
